O=[N+]([O-])N(CCO)CCO.O=[N+]([O-])O.O=[N+]([O-])O
solubility (mole fraction)
Settings | in 1,2-dichloroethane | in 1,4-dioxane | in DMSO | in acetone | in acetonitrile | in dichloromethane | in ethanol | in ethyl acetate | in methanol | in toluene
283.15 K | 0.388 | 0.191 | 0.0407 | 0.234 | 0.182 | 0.0359 | 0.00314 | 0.131 | 0.00238 | 0.0112
288.15 K | 0.441 | 0.245 | 0.0506 | 0.26 | 0.258 | 0.0615 | 0.00518 | 0.17 | 0.00469 | 0.0143
293.15 K | 0.524 | 0.318 | 0.0633 | 0.321 | 0.314 | 0.109 | 0.00751 | 0.209 | 0.0076 | 0.0177
298.15 K | 0.587 | 0.371 | 0.0785 | 0.384 | 0.36 | 0.205 | 0.00986 | 0.285 | 0.0106 | 0.0252
303.15 K | 0.641 | 0.425 | 0.107 | 0.439 | 0.456 | 0.367 | 0.0118 | 0.31 | 0.0126 | 0.0276
308.15 K | 0.704 | 0.488 | 0.132 | 0.536 | 0.519 | 0.448 | 0.0131 | 0.334 | 0.0166 | 0.032
313.15 K | 0.787 | 0.562 | 0.163 | 0.645 | 0.558 | 0.515 | 0.0139 | 0.362 | 0.0207 | 0.0374

Source: BigSolDB 2.1
